Test results as given in patent US20240350669A1, “INHIBITION OF KYNURENINE SYNTHESIS AND/OR SIGNALING TO TREAT LEUKEMIA AND MYELODYSPLASIA” (THE TRUSTEES OF COLUMBIA UNIVERSITY IN THE CITY OF NEW YORK, priority 2022, published 2024).

Key:
[1] = system: IDO1; experiment: CRISPR/Cas9 Ido1 editing of primary murine MLL/AF9 cells; assay type: cell-based, mouse; details: for deletion efficiency: Ido1 exon 3, MLL/AF9 cells
Protocol: The chemically modified sgRNAs targeting IDO1 were obtained and designed with at least 3 mismatches to decrease possible off target effects with the Synthego CRISPR design tool or the CRISPOR. […] In addition, lack of random effects due to TP53 activation, was shown by p16 and p21 mRNA level assessment in Cas9-only controls as well as in all the sgRNAs used. For 10^6 cells, 3 μg of TrueCut Cas9 protein V2 (Invitrogen) and 1.5 μg sgRNA were mixed in either SE (immortalized cell lines WEHI-3B and OCI-AML3) or P3 (primary mouse MLL/AF9 or patient-derived AML cells) buffer (Lonza, Amaxa X-Nucleofector Kit) and incubated 10 mins. Cells were then resuspended in their respective nucleofection buffer, mixed with the Cas9/sgRNA RNP complex or the Cas9 only as control, and electroporated with the Lonza 4D-Nucleofector (program DZ100, CM137 or DI100). After electroporation, cells were cultured in their respective media at 37° C. until sequencing analysis and/or injection. The editing efficiency data, indel contribution and Sanger sequence analyses were performed with the Synthego Performance Analysis, ICE Analysis. 2019. v2.0. (Synthego).

[2] = system: MLL/AF9 cells; experiment: Transplant of Ido1-edited MLL/AF9 cells into WT non-irradiated recipients; assay type: in vivo, mouse; details: for disease progression: exon-3-edited MLL/AF9 cells versus Cas9-only
[3] = system: leukemic blasts (hCD45+hCD33+); experiment: Kyn injection in low AML burden PDX mice; assay type: in vivo, mouse; details: Kyn 20 mg/kg, 1 week
Protocol: 4-6 weeks old NSG (CDX model) or NSGS (PDX model) mice were pre-conditioned with sublethal (1.4 Gy) total-body irradiation. 24 h after, 1×10^6 OCI-AML3 or 2×10^5 human BM CD34^+ (healthy) or primary AML patient samples were injected i.v. Engraftment levels were monitored and mice were randomized after BM aspiration 3-4 weeks later and immunophenotyped by the presence of mCD45 (BioLegend Cat #103133, RRID: AB_10899570), hCD45 (BioLegend Cat #368512, RRID: AB_2566372), hCD33 (BioLegend Cat #303404, RRID: AB_314348), hCD34 (BioLegend Cat #343518, RRID: AB_1937203) cell populations. For the low-burden PDX model (kynurenine injections), mice were treated 1 week after transplant.
Quantification in serum from peripheral blood (mice) or BM plasma (patients) of Kyn and Trp was assessed by ELISA using independent kits (ImmunoSmol) as per manufacturer's instructions. The ratio between Kyn and Trp levels is shown. SAA3 in serum (murine SAA3 ELISA Kit Millipore) and SAA1 in patient BM plasma (Amyloid A1 DuoSet ELISA Kit (R&D) were assessed as per manufacturer's instructions.
Cell labelling was done by i.p. injection of mice with 50 mg/kg of freshly prepared 5-Ethynyl-2′-deoxyuridine-Edu-(Cayman Chemical Company Cat #20518). After 3-4 h, BM was harvested, and human cells were negatively selected by mouse cell depletion using mouse CD45 magnetic beads (Miltenyi). The human BM cells were then stained CD45 and CD33 to identify the leukemic blast. Cell cycle/proliferation analysis was performed using the Click-iT Plus EdU Flow Cytometry Assay Kit (Invitrogen, Cat #C10420) following manufacturers' instructions. Fixable viability dye (Biolegend) was used to discriminate the death population. Single color controls were used to set compensations and fluorescence minus one control were used to set gates. Analysis was performed with FlowJo software.

[4] = target: T1, mouse HTR1B (Mus musculus, UniProt P28334); experiment: [3H]-5-HT competition binding, membranes of HEK293T cells overexpressing murine HTR1B; details: competition of 25 nM [3H]-5-HT; for Log IC50: log value
T1 construct: The full-length murine or human serotonin receptor 1b (Htr1b); Myc-DDK; host or cells: HEK293T (transient, Lipofectamine LTX); isolated membranes
T1 sequence (P28334 whole entry): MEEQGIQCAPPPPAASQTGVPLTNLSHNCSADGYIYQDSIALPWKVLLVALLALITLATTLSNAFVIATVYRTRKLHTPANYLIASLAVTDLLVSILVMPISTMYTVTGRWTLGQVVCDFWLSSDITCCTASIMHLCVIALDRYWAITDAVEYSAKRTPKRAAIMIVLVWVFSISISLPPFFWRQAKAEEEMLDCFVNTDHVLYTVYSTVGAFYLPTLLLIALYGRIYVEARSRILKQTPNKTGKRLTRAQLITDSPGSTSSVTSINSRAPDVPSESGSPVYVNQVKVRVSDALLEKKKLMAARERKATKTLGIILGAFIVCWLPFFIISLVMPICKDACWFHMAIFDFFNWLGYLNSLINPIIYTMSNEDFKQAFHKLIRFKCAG
Protocol: (§1) Radioactivity captured on the filters was counted using a SL300 scintillation counter (Hidex). […] Log EC50 were determined by Non-linear regression curve analysis.

[5] = target: T2, human HTR1B (Homo sapiens, UniProt P28222); experiment: [3H]-GR125743 competitive radioligand binding, HTR1B membranes from HEK293T stable transfectants; details: [3H]-GR125743, human HTR1B
T2 sequence (P28222 whole entry): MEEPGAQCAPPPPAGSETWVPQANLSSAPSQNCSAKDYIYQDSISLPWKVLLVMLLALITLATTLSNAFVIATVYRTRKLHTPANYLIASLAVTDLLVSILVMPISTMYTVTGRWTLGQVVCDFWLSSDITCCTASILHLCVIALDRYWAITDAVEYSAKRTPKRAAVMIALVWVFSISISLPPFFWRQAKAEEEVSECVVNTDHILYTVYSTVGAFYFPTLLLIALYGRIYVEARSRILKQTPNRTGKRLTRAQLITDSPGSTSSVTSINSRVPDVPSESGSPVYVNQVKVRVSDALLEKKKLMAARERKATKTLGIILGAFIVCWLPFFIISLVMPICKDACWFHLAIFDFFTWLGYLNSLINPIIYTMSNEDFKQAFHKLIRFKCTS
Protocol: [^3H]-GR125743 (PerkinElmer) radioligand binding assays were performed in standard binding buffer (50 mM Tris, 10 mM MgCl2, 0.1 mM EDTA, 0.1% BSA, 0.01% ascorbic acid, pH 7.4). Competitive binding was assessed with various concentrations of test compounds (0.3 nM to 100 μM), [^3H]-GR125743 (1.38 nM), and HTR1B membranes (isolated from HEK293T stable transfectants) in a total volume of 150 μL. Assay plates were incubated in the dark for 1 h at RT and reactions were stopped by filtration onto 0.3% polyethyleneimine pre-soaked 96-well Filtermat A (PerkinElmer), followed with three quick washes with cold wash buffer (50 mM Tris, pH 7.4). Filters were dried and melted with scintillation cocktail (Meltilex, PerkinElmer). Radioactivity was counted using a Wallac TriLux Microbeta counter (PerkinElmer).

[6] = target: T3, 5-HT1B receptor (Homo sapiens, UniProt P28222); experiment: GloSensor Gi/o-mediated cAMP inhibition assay in HEK293T cells; assay type: cell-based
T3 construct: expressed in transfected cells; host or cells: HEK293T (transient co-transfection with GloSensor cAMP plasmid)
T3 sequence (P28222 whole entry): as above

[7] = system: HTR1B; experiment: Saa3 mRNA in primary mouse calvaria osteoblasts from Htr1b+/+ or Htr1b-/- mice; assay type: cell-based; details: 25 nM, 24 h; for Saa3 expression in mouse osteoblasts: Htr1b+/+ osteoblasts
Protocol: Primary calvaria-derived osteoblasts were prepared from calvaria of 2-3 day-old newborns as previously described (Rached M-T, et al. FoxO1 Is a Positive Regulator of Bone Formation by Favoring Protein Synthesis and Resistance to Oxidative Stress in Osteoblasts. Cell Metabolism. Elsevier Ltd; 2010; 11:147-60.). Briefly, mice calvaria were sequentially digested for 20, 40, and 90 min at 37° C. in alpha-MEM (Gibco) 10% FBS containing 0.1 mg/ml of collagenase P (Worthington) and 0.25% trypsin (Gibco). Cells of the first two digests were discarded, whereas cells released from the third digestion were plated and differentiated for 7-10 days as previously described.
(§2) RNA isolation, cDNA preparation and real-time PCR analyses were carried out following standard protocols. Total RNA from cortical bone (clean, flushed femurs, were centrifugated 20 seconds at 10.000 g's to remove any remaining BM) was extracted using TRIzol (Invitrogen) followed by RNA clean-up using PureLink RNA Mini Kit (Ambion, Invitrogen). mRNA was reversed transcribed using random hexamers RNA-to-cDNA kit (Takara). Specific forward and reverse primers were used in conjunction with PowerUp SYBR Green Master Mix (Applied Biosystems) for quantitative PCR. Expression levels were analyzed using the 2^−ΔΔCt method and were normalized for the expression of the housekeeping gene Hprt unless otherwise stated.

[8] = target: T2, human HTR1B; details: competition of 25 nM [3H]-5-HT
Protocol: The full-length murine or human serotonin receptor 1b (Htr1b) (pCMV6-Entry vector, Myc-DDK-tagged, Origene, Cat #MR222524 and RC223874 respectively) were transiently transfected into HEK293T cells using Lipofectamine LTX (Invitrogen). Transfection efficiency was assessed 24 h post-transfection by flow cytometry using the anti-Flag antibody (Sigma-Aldrich Cat #F3165, RRID: AB_259529). […] Reactions were stopped by the addition of ice-cold PBS, filtered through 0.7 μm glass fiber filters (Data Support Company). Filters were dried and melted with scintillation cocktail. Radioactivity captured on the filters was counted using a SL300 scintillation counter (Hidex). […] Log EC50 were determined by Non-linear regression curve analysis.

[9] = system: patient-derived AML cells; experiment: Patient-derived AML xenograft in NSG mice, epacadostat chow and/or Ara-C; assay type: in vivo, mouse; details: day 22 after initiating therapy; Ara-C 60 mg/kg/day x 5 days, epacadostat chow 1.6 g/kg 3 weeks
Protocol: (§3) Epacadostat (AdooQ Cat #A15554)-treatment: for the WT C57BL/6J mice, treatment started at the same time than MLL/AF9 cells were transplanted. For the patient-derived AML cells (PDX) transplanted into NSG mice, treatment started 8 weeks after transplant, at the same time than Ara-C and during 3 weeks. Mice were supplied with ad libitum epacadostat-supplemented diet (Research Diets Inc.) at 800 mg/kg (low-dose) or 1.6 g/kg (high-dose). For the PDX transplanted into NSGS mice, treatment started 3 weeks after transplant, by daily gavage at 300 mg/kg (InvivoChem Cat #: V0942, dissolved in 10% DMSO, 40% PEG 300 and 50% NaCl 0.9%) for 2 weeks.
For the combination therapy (Epacadostat+chemotherapy) performed at the University of Pennsylvania, patient-derived AML cells were transplanted as previously reported (48). Briefly 6 weeks old NSG males were sublethally treated with busulfan (30 mg/kg) 24 h before transplant and 5×10^6 patient-derived AML cells were injected i.v. Engraftment was assessed, and mice were randomized at 7.5 weeks by BM aspirate as previously described. Randomized mice were treated with vehicle, cytosine arabinoside (Ara-C, 60 mg/kg/day×5 days i.p.), epacadostat chow (1.6 g/kg ad libitum) or both Ara-C and epacadostat chow for 3 weeks.

[10] = target: T4, murine HTR1B receptor (Mus musculus, UniProt P28334); experiment: [3H]-Kyn binding to Htr1b-overexpressing HEK293T membranes with increasing SB9
T4 construct: The full-length murine or human serotonin receptor 1b (Htr1b); Myc-DDK; host or cells: HEK293T (transient, Lipofectamine LTX); isolated membranes
T4 sequence (P28334 whole entry): as the sequence (P28334 whole entry) above
Protocol: as §1

[11] = system: MLL/AF9 AML cells; experiment: MLL/AF9 syngeneic leukemia model in non-irradiated WT mice; assay type: in vivo, mouse
Protocol: PTH bone-anabolic treatment: mice were injected intraperitoneally (i.p.) with PTH (Bachem) at 80 μg/kg/day in PBS. Injections started 1 week before MLL/AF9 injection and continued along 2-3 more weeks until mice were harvest.
SB224289-SB9-(TOCRIS Cat #1221) treatment: mice were injected intraperitoneally (i.p.) daily with SB9 (5 mg/kg in 0.9% NaCl) 1 week after leukemia injection and for the duration of the experiment. Assuming a 20 g body weight (BW) and a 2 ml total blood volume per mouse—as well as an even distribution of the drug-systemic concentration of SB9 should be approximately 50 μg/ml. Based on the MW of SB9 (557.09), the final concentration—at equal distribution—in blood should be 8.97521e-05 M (≈90 μM).
as §3
All leukemia models were introduced by intravenous (i.v.) injection and transplanted into non-irradiated secondary recipient experimental animals. BALB/c mice were used for the WEHI-3B leukemia model (0.5×10^6/cells/mouse) and C57BL/6J mice for MLL/AF9-dsRed (0.2×10^6/cells/mouse). Leukemia progression was assessed by fluorescence (MLL/AF9 dsRed) using the IVIS-Spectrum Optical Imaging System (Caliper, Perkin Elmer). Mice were shaved to reduce light attenuation.

[12] = system: serotonin-HTR1B signaling; experiment: Gene expression in bone of treated mice (targets of serotonin-HTR1B signaling); assay type: in vivo, mouse; details: for expression of Cyclins D1, D2 and E1 in bone: treated versus vehicle-treated mice
Protocol: as §2

sgRNA #203: mouse sgRNA targeting Ido1 exon 3: CAGUCCGUCCGUGCUCAGUG TGG (guide CAGUCCGUCCGUGCUCAGUGTGG; modified_base 21 OTHER; thymine)
deletion efficiency [1]: ~40% | disease progression [2]: significantly attenuated

sgRNA #610: mouse sgRNA targeting Ido1 exon 4: UAGGGAACAGCAAUAUUGCG GGG (guide UAGGGAACAGCAAUAUUGCGGGG; listed as RNA, chemistry not fully specified)
MLL/AF9 cells efficiently targeted ([1]; Ido1 exon 4): ~70% | loss of expression of Ido1 at the mRNA level ([1]; Ido1 exon 4, MLL/AF9 cells): 70% | mice with complete protection against leukemia progression that survived ([2]; exon-4-edited MLL/AF9 cells): 36% | survival ([2]; exon-4-edited MLL/AF9 cells versus Cas9-only): significant increase in survival

Nc1ccccc1C(=O)CC(N)C(=O)O (stereo not drawn) [Kyn, kynurenine]
AML burden in BM and SP [3]: increased | proliferative capacity of the leukemic blasts [3]: increases | serum SAA3 [3]: increases | IC50 [4]: 54.1 µM | Log IC50 [4]: −4.267 M | Ki [5]: 17.3 µM | Log Ki ([5]; log value): −4.762 M | mode of action on Gi/o-mediated cAMP production through HTR1B [6]: partial agonist | EC50 ([6]; cAMP Gi agonist, human HTR1B): 0.772 µM | Log EC50 ([6]; log value, cAMP Gi agonist, human HTR1B): −6.113 M | Saa3 expression in Htr1b-/- primary osteoblasts [7]: failed to upregulate | Saa3 expression in mouse osteoblasts [7]: potently upregulated | IC50 [8]: 24.4 µM | Log IC50 ([8]; log value): −4.612 M

NCCc1c[nH]c2ccc(O)cc12 [5-HT, 5-hydroxytryptamine]
IC50 [4]: 0.0811 µM | Log IC50 [4]: −7.091 M | Saa3 expression in mouse osteoblasts [7]: no effect

sgRNA #196: mouse sgRNA targeting Ido1 exon 3: CUGCCCACACUGAGCACGGA CGG (guide CUGCCCACACUGAGCACGGACGG; listed as RNA, chemistry not fully specified)
deletion efficiency [1]: ~40% | disease progression [2]: significantly attenuated

Nc1ccn([C@@H]2O[C@H](CO)[C@@H](O)[C@@H]2O)c(=O)n1 [Ara-C, cytosine arabinoside]
leukemic burden in BM [9]: modest decrease in overall leukemic burden | leukemic burden in spleen [9]: more sustained in the spleen than in BM

Cc1nc(-c2ccc(-c3ccc(C(=O)N4CCc5cc6c(cc54)C4(CCN(C)CC4)CO6)cc3)c(C)c2)no1 [SB224289, 1′-methyl-5-[[2′-methyl-4“-(5-methyl-1,2,4-oxadiazol-3-yl)biphenyl-4-yl]carbonyl]-2,3,6,7-tetrahydro-spiro[furo[2,3-f]indole-3,4-”piperidine]]
effect on Kyn binding to the murine HTR1B receptor ([10]; at ~90 μM, concentration equal to the one administered in vivo): no effect | IC50 ([10]; competition of [3H]-Kyn (50 μM), mouse HTR1B): 7720 µM | IC50 [4]: 1.27 µM | Log IC50 [4]: −5.896 M | survival ([11]; SB9 5 mg/kg i.p. daily versus vehicle): significant increase in survival | expression of Col1a1 in bone ([12]; control osteoblast-specific gene): not affected | expression of Cyclins D1, D2 and E1 in bone [12]: upregulated

B1: parathyroid hormone (peptide, UniProt P01270 32-115, looked up)
Parathyroid hormone: SVSEIQLMHNLGKHLNSMERVEWLRKKLQDVHNFVALGAPLAPRDAGSQRPRKKEDNVLVESHEKSLGEADKADVNVLTKAKSQ
modifications: Parathyroid hormone
notes: intermittent parathyroid hormone (Bachem), increases osteoblast numbers
leukemia growth, disease progression and lifespan ([11]; PTH 80 μg/kg/day i.p. versus vehicle): failed to curtail leukemia growth | expression of Cyclins D1, D2 and E1 in bone [12]: did not change
